These results are taken from patent US5696229A, “Polypeptide with laminin cell adhesion and morphogenesis activity” (The University of Virginia Patent Foundation, priority 1995, dated 1997).

Data set [1] has as its system type II alveolar cells. The class given is cell-based, rat. The settings on record: for Area (of cellular structures): cells plated on 1.8 mg/cm^2 gelled protein substrate, 5 d, mean ± SD, alveoli defined as > 20 × 10^3 um^2; for Alveolar formation on substrate: cells plated on equal milligram amounts of gelled substrate; for Area: Table II, laminin A chain synthetic peptide preincubated with cells before plating on BMS, None = 108 ± 23; for Inhibition of alveolar formation by soluble laminin fragment or peptide: preincubated with cells prior to plating on BMS, day five. The text has this:
Type II alveolar cells were isolated from 250-g Sprague Dawley rats (Hilltop Laboratory Animals, Inc.) according to the method of Rannels (Rannels and Rannels, 1988). Briefly, an initial cardiac perfusion with 0.9% saline was followed by instillation of the airways with 0.1% elastase (Calbiochem Corp., La Jolla, Calif.) in Joklik's modified minimal medium (JMEM) containing 0.05% BaSO4. Elastase was inactivated by instillation of JMEM containing soybean trypsin inhibitor (0.08%; Sigma Chemical Co., St. Louis, Mo.), DNase (0.08%. Sigman Chemical Co.), and 50% newborn calf serum (GIBCO BRL, Gaithersburg, Md.). Lung tissue was minced, vortexed, and filtered through 160-μm nylon mesh (Tetko, Elmsford, N.Y.). Released cells were centrifuged for 10 min at 500 g, resuspended in JMEM containing 0.08% DNAse, and layered on a Percoll (Pharmacia Fine Chemicals) discontinuous density gradient. After centrifugation for 20 min (4° C.) , cells were collected at the 1.04/1.08 interface, washed in JMEM, brought up in DME containing 10% fetal bovine serum (FBS) (GIBCO BRL), and incubated for 30 min (37° C.) in 75-cm^2 tissue culture flasks to eliminate contaminating macrophage cells which rapidly adhere to the plastic surface. The resultant type II alveolar cell preparations were 95% viable as determined by trypan blue exclusion; purity was 93% as assessed by the presence of lamellar bodies visible with Hoffman optics at a magnification of 40 and by tannic acid staining. Analysis of total cellular DNA/well on each day of an experiment was performed in triplicate on trypsin/disease released cells using a DNA fluorometry assay (Labarca and Paigen, 1980).
Freshly isolated type II alveolar cells were plated in 96-well plates at 20×10^3 cells/well on 500 μg/well (1.8 mg/cm^2) of gelled BMS of collagen I. Cells were cultured over 5 d with on media change performed on day three. Alveolar formation was analyzed at 24-h intervals over 5 d from photographic negatives (4×original magnification of central portion of each well) of triplicate wells. Images from negatives were transferred via video camera to an Image I imaging system (Universal Imaging Corp., West Chester, Pa.) and viewed on a color video monitor. The area of cellular structures was then determined and expressed as the mean±standard deviation. In some cases two size categories were distinguished: (a) single cells (200-300 μm^2) and (b) model alveoli (20×10^3 μm^2 or greater) with data expressed as percent of area occupied by each category.
(§1) In alveolar inhibition studies, antibodies (50 μg/well) were incubated with gelled BMS (500 μg/well) in wells of 96-well plates for 60 min at 37° C. Unbound antibody was removed by three DME washes (200 μl/well) and then freshly isolated cells were added. Dose-response assays were performed on all antibodies. Laminin fragments and synthetic peptides (micromolar amount indicated on figures) were preincubated with freshly isolated type II alveolar cells in suspension for 30 min at 37° C. with gentle agitation every 5 min; cells together with fragment or peptide were then plated on BMS. Cell viability in the presence of each antibody, fragment, or synthetic peptide was accessed using the MTT (3-[4,5-dimethylthiazol-2-yl]-2,5-diphenyl tetrazolium bromide) assay (Chemicon International, Inc. Temecula, Calif.).

For data set [2], the system named is type II alveolar cells. In kind it is cell-based, rat. How it is done:
as §1

In data set [3] the test system is HT1080 human fibrosarcoma cells. The experiment in a line: Cell adhesion studies, HT1080 cells on coated plates (Example 1). The class given is cell-based. The protocol:
(§2) Plates coated overnight (4° C.) with equimolar amounts of laminin, laminin fragment, or synthetic peptide were blocked with 1% BSA (Sigma Chemical Co.) for 4 h (4° C.) and cells were subsequently added (2×10^4 /well) in serum-free media and incubated for 60 min (37° C.) according to the method of Aumailey and Timpl (1986). Inhibition studies were carried out by preincubating cells for 30 min (37°; gentle agitation every 5 min) with equimolar amounts of soluble fragment or peptide. Cells, together with soluble inhibitor, were then added to the coated plates. After a 60-min (37° C.) incubation, plates were washed twice with PBX, fixed with 1% glutarldehyde (Electron Microscopy Service Laboratories, Westmount, N.J.), PBS, washed, stained with 0.1% crystal violet (Serra Biochemicals, Hauppauge, N.Y.), washed twice with distilled water, solubilized in 0.5% Triton X-100 (Sigma Chemical Co.), and read on an ELISA plate reader (Molecular Devices Corp., Menio Park, Calif.) equipped with a 595-nm filter.

Data set [4] concerns type II alveolar cells. The data set is described as follows: Cell adhesion studies, type II alveolar cells on coated plates (Example 1). The following applies: coating 100 μM. The class given is cell-based, rat. How it is done: as §2

Peptide text beside a SMILES is read from it.

As for `CC[C@H](C)[C@H](NC(=O)[C@H](CO)NC(=O)[C@H](Cc1c[nH]cn1)NC(=O)[C@H](Cc1c[nH]c2ccccc12)NC(=O)[C@H](CCCNC(=N)N)NC(=O)[C@H](CC(N)=O)NC(=O)[C@H](CC(N)=O)NC(=O)[C@H](CC(N)=O)NC(=O)[C@@H](NC(=O)[C@@H](N)CO)[C@@H](C)CC)C(=O)N[C@@H](Cc1ccc(O)cc1)C(=O)N[C@H](C(=O)N[C@H](C(=O)N[C@@H](CCCNC(=N)N)C(=O)N[C@@H](Cc1ccccc1)C(=O)NCC(=O)N[C@@H](CC(N)=O)C(=O)N[C@@H](CCSC)C(=O)NCC(=O)N[C@@H](CO)C(=O)O)[C@@H](C)O)[C@@H](C)CC` [SN-peptide] (H-SINNNRWHSIYITRFGNMGS-OH), the midpoint of inhibition with type II alveolar cells [1], the IC50, lay at 50 µM. In the data set with type II alveolar cells [2], this molecule showed a Cell viability of 97±1%.

With Collagen IV: Mouse collagen IV, the “Area (of cellular structures)” value with type II alveolar cells [1] came to 0.4 ± 0.2 μm^2 × 10^3.

For `O=C(O)CN(CCN(CC(=O)O)CC(=O)O)CC(=O)O` [EDTA, reference compound], the “Inhibition of HT1080 cell adhesion to SN-peptide” value in data set [3] (cells preincubated with inhibitor, coating and inhibitor 100 μM, EDTA 2 mM) was “inhibited”.

“collagen I: Rat tail collagen I, negative control substrate”: the “Alveolar formation on substrate” value in the data set on type II alveolar cells [1] is listed as “completely ineffective”.

Turning to “RGDS [functionally identical to RGDN, P1 fragment cell adhesion site, reference compound]”, in the data set on type II alveolar cells [1], the Area came out at 105 ± 24 μm^2 × 10^3 and the “Inhibition of alveolar formation by soluble laminin fragment or peptide” value (from here on “Inhibition of alveolar formation”) is given as “no effect on alveolar formation”.

“Laminin: Mouse laminin, large cross-shaped cell adhesive heterotrimer”: in the data set with type II alveolar cells [4], the “Adhesion of type II alveolar cells to coated substrate” value is reported as “Adhesion”. This molecule had a Percent cell attachment in data set [3] (HT1080 cells, substrate coated at 35 μM, mean ± SD) of 80 ± 0.02%. Moreover, in the data set with type II alveolar cells [1], the “Area (of cellular structures)” value is given as 35 ± 3 μm^2 × 10^3 and the “Alveolar formation on substrate” value is listed as “alveoli formed only on laminin”.

Consider “AASIKVAVSADR [peptide from mouse laminin A chain, antigen of ab-A[IK], reference compound]”, for which, in the data set on type II alveolar cells [1], the Area worked out at 98 ± 22 μm^2 × 10^3 and the “Inhibition of alveolar formation” value is given as “no effect on alveolar formation”.

As for `CC[C@H](C)[C@H](NC(=O)[C@@H](N)CO)C(=O)N[C@@H](CC(N)=O)C(=O)N[C@@H](CC(N)=O)C(=O)N[C@@H](CC(N)=O)C(=O)N[C@@H](CCCNC(=N)N)C(=O)O` [SINNNR] (H-SINNNR-OH), in the data set on type II alveolar cells [1], the IC50 is 68 µM.

“KQNCLSSRASFRGCVRNLRLSR [reference compound]”: in the data set with type II alveolar cells [1], the Area is on record as 110 ± 19 μm^2 × 10^3 and the “Inhibition of alveolar formation” value is given as “no effect on alveolar formation”.

Consider “WHSIYITR [middle 8-mer of SN-peptide from trypsin digestion]”, for which, in the data set with type II alveolar cells [1], the “Inhibition of alveolar formation” value was “partial”.

As to “AASVVIAKSADR [scrambled IKVAV control peptide, reference compound]”, in the data set on type II alveolar cells [1], the Area stood at 100 ± 18 μm^2 × 10^3 and the “Inhibition of alveolar formation” value is reported as “no effect on alveolar formation”.

On to “FGNMGS [carboxy-terminal 6-mer of SN-peptide from trypsin digestion]”, for which, in the data set on type II alveolar cells [1], the “Inhibition of alveolar formation” value is “minimal”.

B1: Entactin: Mouse entactin purchased from Upstate Biotechnology (protein, UniProt P10493 29-1245, looked up)
Nidogen-1: LNRQELFPFGPGQGDLELEAGDDVVSPSLELIGELSFYDRTDITSVYVTTNGIIAMSEPPATEYHPGTFPPSFGSVAPFLADLDTTDGLGNVYYREDLSPFIIQMAAEYVQRGFPEVSFQPTSVVVVTWESVAPYGGPSSSPAEEGKRNTFQAVLASSNSSSYAIFLYPEDGLQFFTTFSKKDESQVPAVVGFSKGLVGFLWKSNGAYNIFANDRESIENLAKSSNAGHQGVWVFEIGSPATAKGVVSADVNLDLDDDGADYEDEDYDLVTSHLGLEDVATPSPSHSPRRGYPDPHNVPRILSPGYEATERPRGVPTERTRSFQLPAERFPQHHPQVIDVDEVEETGVVFSYNTGSQQTCANNRHQCSVHAECRDYATGFCCRCVANYTGNGRQCVAEGSPQRVNGKVKGRIFVGSSQVPVVFENTDLHSYVVMNHGRSYTAISTIPETVGYSLLPLAPIGGIIGWMFAVEQDGFKNGFSITGGEFTRQAEVTFLGHPGKLVLKQQFSGIDEHGHLTISTELEGRVPQIPYGASVHIEPYTELYHYSSSVITSSSTREYTVMEPDQDGAAPSHTHIYQWRQTITFQECAHDDARPALPSTQQLSVDSVFVLYNKEERILRYALSNSIGPVRDGSPDALQNPCYIGTHGCDSNAACRPGPGTQFTCECSIGFRGDGQTCYDIDECSEQPSRCGNHAVCNNLPGTFRCECVEGYHFSDRGTCVAAEDQRPINYCETGLHNCDIPQRAQCIYMGGSSYTCSCLPGFSGDGRACRDVDECQHSRCHPDAFCYNTPGSFTCQCKPGYQGDGFRCMPGEVSKTRCQLEREHILGAAGGADAQRPTLQGMFVPQCDEYGHYVPTQCHHSTGYCWCVDRDGRELEGSRTPPGMRPPCLSTVAPPIHQGPVVPTAVIPLPPGTHLLFAQTGKIERLPLERNTMKKTEAKAFLHIPAKVIIGLAFDCVDKVVYWTDISEPSIGRASLHGGEPTTIIRQDLGSPEGIALDHLGRTIFWTDSQLDRIEVAKMDGTQRRVLFDTGLVNPRGIVTDPVRGNLYWTDWNRDNPKIETSHMDGTNRRILAQDNLGLPNGLTFDAFSSQLCWVDAGTHRAECLNPAQPGRRKVLEGLQYPFAVTSYGKNLYYTDWKTNSVIAMDLAISKEMDTFHPHKQTRLYGITIALSQCPQGHNYCSVNNGGCTHLCLPTPGSRTCRCPDNTLGVDCIERK
As to B1, the “Area (of cellular structures)” value in the data set with type II alveolar cells [1] is 1 ± 0.5 μm^2 × 10^3.

In general, IC50 refers to the concentration that gives 50% inhibition. Low readings indicate greater potency, high ones weaker potency.
